Assay results reported in patent US6407103B2, “Indeno [1,2-c] pyrazol-4-ones and their uses” (Bristol-Myers Squibb Pharma Company, priority 1998, dated 2002).
Where a name gives a salt, the structure may show the parent alone.

Compound | melting point
CN(C)c1ccc(-c2[nH]nc3c2C(=O)c2c(NC(=O)CN4CCOCC4)cccc2-3)cc1 [Example LV, 3-(4-(N,N-dimethylamino)phenyl)-5-(morpholinoacetamido)indeno[1,2-c]pyrazol-4-one] | > 300 °C
CN(C)C1CCCN(C(=O)c2ccc(-c3[nH]nc4c3C(=O)c3c(NC(=O)NN5CCOCC5)cccc3-4)s2)C1 (stereo not shown) (as salt: TFA) [Example CLXV, 3-(5-(3-(N,N-dimethylamino)piperidinocarbonyl)-2-thienyl)-5-(morpholinocarbamoylamino)indeno[1,2-c]pyrazol-4-one] | > 300 °C
COC[C@H]1CCCN1NC(=O)c1ccc(-c2[nH]nc3c2C(=O)c2c(NC(=O)NN4CCOCC4)cccc2-3)s1 (as salt: TFA) [Example CLXXXVIII, 3-(5-(2(R)-(methoxymethyl)pyrrolidinoaminocarbonyl)-2-thienyl)-5-(morpholinocarbamoylamino)indeno[1,2-c]pyrazol-4-one] | 266 °C
CCN(CC)CC1CCCCN1C(=O)c1ccc(-c2[nH]nc3c2C(=O)c2c(NC(=O)NN4CCOCC4)cccc2-3)s1 (stereo not shown) (as salt: TFA) [Example CLXXIII, 3-(5-(2-(N,N-diethylaminomethyl)piperidinocarbonyl)-2-thienyl)-5-(morpholinocarbamoylamino)indeno[1,2-c]pyrazol-4-one] | 210 °C
O=C(Nc1cccc2c1C(=O)c1c-2n[nH]c1-c1ccc(N2CCNCC2)cc1)NN1CCOCC1 (as salt: TFA) [Example CCXI, 3-(4-piperazinophenyl)-5-(morpholinocarbamoylamino)indeno[1,2-c]pyrazol-4-one] | 263 °C
CO[C@H]1CC[C@@H](C(=O)N2CCC(c3[nH]nc4c3C(=O)c3c(NC(=O)NN5CCOCC5)cccc3-4)CC2)CC1 (as salt: TFA) [Example CCXCIII, 3-(1-(cis-4-methoxycyclohexylcarbonyl)piperidin-4-yl)-5-(morpholinocarbamoylamino)indeno[1,2-c]pyrazol-4-one] | 178 °C
O=C(Nc1cccc2c1C(=O)c1c-2n[nH]c1-c1ccc(C(=O)N2CCC[C@@H]2CN2CCCC2)s1)NN1CCOCC1 (as salt: TFA) [Example CLXXXIV, 3-(5-(2(R)-(pyrrolidinomethyl)pyrrolidinocarbonyl)-2-thienyl)-5-(morpholinocarbamoylamino)indeno[1,2-c]pyrazol-4-one] | 166 °C
CC(C)c1[nH]nc2c1C(=O)c1c(NC(=O)CN3CCC(C(N)=O)CC3)cccc1-2 [Example CXV, 3-(i-propyl)-5-((4-carbamoylpiperidino)acetamido)indeno [1,2-c]pyrazol-4-one] | 224 °C
Cn1ccc(-c2[nH]nc3c2C(=O)c2c(NC(=O)NN4CCOCC4)cccc2-3)c1 [Example CC, 3-(1-methyl-3-pyrrolyl)-5-(morpholinocarbamoylamino)indeno[1,2-c]pyrazol-4-one] | 301 °C
CC1CCCC(C)N1NC(=O)Nc1cccc2c1C(=O)c1c-2n[nH]c1-c1ccc(N2CCNCC2)cc1 (stereo not shown) (as salt: TFA) [Example CCXXVII, 3-(4-piperazinophenyl)-5-((2,6-dimethylpiperidino)carbamoylamino)indeno[1,2-c]pyrazol-4-one] | 270 °C
CN1CCN(C(=O)c2ccc(-c3[nH]nc4c3C(=O)c3c(NC(=O)NN5CCOCC5)cccc3-4)s2)CC1 (as salt: TFA) [Example CL, 3-(5-(4-methylpiperazinocarbonyl)-2-thienyl)-5-(morpholinocarbamoylamino)indeno[1,2-c]pyrazol-4-one] | 186 °C
O=C(Nc1cccc2c1C(=O)c1c-2n[nH]c1-c1ccc(C(=O)N2CCN(CCO)CC2)s1)NN1CCOCC1 (as salt: TFA) [Example CLII, 3-(5-(4-(2-hydroxyethyl)piperazinocarbonyl)-2-thienyl)-5-(morpholinocarbamoylamino)indeno[1,2-c]pyrazol-4-one] | 186 °C
CCN(CC)C1CCN(c2ccc(-c3[nH]nc4c3C(=O)c3c(NC(=O)NN5CCOCC5)cccc3-4)cc2)CC1 (as salt: TFA) [Example CCLII, 3-(4-(4-(N,N-diethylamino)piperidino)phenyl)-5-(morpholinocarbamoylamino)indeno[1,2-c]pyrazol-4-one] | 251 °C
NCC1CCN(CC(=O)Nc2cccc3c2C(=O)c2c-3n[nH]c2-c2ccc(N3CCNCC3)cc2)CC1 (as salt: TFA) [Example CCXVII, 3-(4-piperazinophenyl)-5-(4-(aminomethyl)piperidinoacetamido)indeno[1,2-c]pyrazol-4-one] | 239 °C
CN1CCC(CNC(=O)c2ccc(-c3[nH]nc4c3C(=O)c3c(NC(=O)NN5CCOCC5)cccc3-4)s2)C1 (stereo not shown) (as salt: TFA) [Example CLXXXIII, 3-(5-((1-methylpyrrolidin-3-yl)methylaminocarbonyl)-2-thienyl)-5-(morpholinocarbamoylamino)indeno[1,2-c]pyrazol-4-one] | 151 °C
CCc1[nH]nc2c1C(=O)c1c(NC(=O)CN3CCC(CN)CC3)cccc1-2 [Example CXVII, 3-(ethyl)-5-(4-(aminomethyl)piperidinoacetamido)indeno [1,2-c]pyrazol-4-one] | 174 °C
CN(C)C1CCN(C(=O)N2CCC(c3[nH]nc4c3C(=O)c3c(NC(=O)NN5CCOCC5)cccc3-4)CC2)CC1 (as salt: TFA) [Example CCLXIX, 3-(1-(4-(dimethylamino)piperidinocarbonyl)piperidin-4-yl)-5-(morpholinocarbamoylamino)indeno[1,2-c]pyrazol-4-one] | 172 °C
O=C(Nc1cccc2c1C(=O)c1c-2n[nH]c1-c1ccc(C(=O)N2CCC[C@H]2CNc2ccccc2)s1)NN1CCOCC1 (as salt: TFA) [Example CLXXXVII, 3-(5-(2(S)-(phenylaminomethyl)pyrrolidinocarbonyl)-2-thienyl)-5-(morpholinocarbamoylamino)indeno[1,2-c]pyrazol-4-one] | > 300 °C
CN(C)CCCCC(=O)N1CCC(c2[nH]nc3c2C(=O)c2c(NC(=O)NN4CCOCC4)cccc2-3)CC1 (as salt: TFA) [Example CCLXXVIII, 3-(1-(4-(dimethylamino)butylcarbonyl)piperidin-4-yl)-5-(morpholinocarbamoylamino)indeno[1,2-c]pyrazol-4-one] | 68 °C
CC(C)(C)OC(=O)N1CCN(c2ccc(-c3[nH]nc4c3C(=O)c3c(NC(=O)NN5CCOCC5)cccc3-4)cc2)CC1 [Example CCX, 3-(4-(4-t-butoxycarbonylpiperazino)phenyl)-5-(morpholinocarbamoylamino)indeno[1,2-c]pyrazol-4-one] | 242 °C
CCc1[nH]nc2c1C(=O)c1c(NC(=O)NN3CCN(C)CC3)cccc1-2 (as salt: TFA) [Example CCLVI, 3-ethyl-5-(4-methylpiperazinocarbamoylamino)indeno[1,2-c]pyrazol-4-one] | 244 °C
CN1CCN(c2ccc(-c3[nH]nc4c3C(=O)c3c(NC(=O)NN(C)C)cccc3-4)cc2)CC1 (as salt: TFA) [Example CCXXII, 3-(4-(4-methylpiperazino)phenyl)-5-((N,N-dimethylamino)carbamoylamino)indeno[1,2-c]pyrazol-4-one] | 192 °C

Now from value to molecule:

melting point | Compound
245 °C | O=C(CN1CCC(O)CC1)Nc1cccc2c1C(=O)c1c-2n[nH]c1-c1ccc(N2CCOCC2)cc1 [Example LXXXIII, 3-(4-(4-morpholinyl)phenyl)-5-((4-hydroxy-1-piperidinyl)acetamido)indeno[1,2-c]pyrazol-4-one]
> 300 °C | COc1ccc(-c2[nH]nc3c2C(=O)c2c(NC(=O)CN4CCN(CCO)CC4)cccc2-3)cc1 [Example XXVIII, 3-(4-methoxyphenyl)-5-(4-(2-hydroxyethyl)piperazinoacetamido)indeno[1,2-c]pyrazol-4-one]
> 300 °C | COc1ccc(-c2[nH]nc3c2C(=O)c2c(NC(=O)CN4CCN(C)CC4)cccc2-3)cc1 [Example XXVII, 3-(4-methoxyphenyl)-5-(4-methylpiperazinoacetamido)indeno[1,2-c]pyrazol-4-one]
280 °C | COc1ccc(-c2[nH]nc3c2C(=O)c2c(NC=O)cccc2-3)cc1 [Example XLVII, 3-(4-methoxyphenyl)-5-(formamido)indeno[1,2-c]pyrazol-4-one]
> 300 °C | COc1ccc(-c2[nH]nc3c2C(=O)c2c(NC(=O)NN4CCOCC4)cccc2-3)cc1 [Example LXVI, 3-(4-methoxyphenyl)-5-((morpholinocarbamoyl)amino)indeno[1,2-c]pyrazol-4-one]
> 300 °C | CC(=O)Nc1cccc2c1C(=O)c1c-2n[nH]c1-c1ccc(O)cc1 [Example XLVI, 3-(4-hydroxyphenyl)-5-(acetamido)indeno[1,2-c]pyrazol-4-one]
279 °C | COc1ccc(-c2[nH]nc3c2C(=O)c2c(NC(=O)CN4CCCC4)cccc2-3)cc1 [Example XXXIV, 3-(4-methoxyphenyl)-5-(pyrrolidinoacetamido)indeno[1,2-c]pyrazol-4-one]
280 °C | COc1ccc(-c2[nH]nc3c2C(=O)c2c(NC(=O)Cc4ccccc4)cccc2-3)cc1 [Example VIII, 3-(4-methoxyphenyl)-5-(phenylacetamido)indeno[1,2-c]pyrazol-4-one]
243 °C | COc1ccc(-c2[nH]nc3c2C(=O)c2c(NC(=O)CNCCO)cccc2-3)cc1 [Example XXIV, 3-(4-methoxyphenyl)-5-((2-hydroxyethyl)aminoacetamido)indeno[1,2-c]pyrazol-4-one]
> 300 °C | COc1ccc(-c2[nH]nc3c2C(=O)c2c(NC(=O)NN4CCN(C)CC4)cccc2-3)cc1 [Example LXVIII, 3-(4-methoxyphenyl)-5-((4-methylpiperazinocarbamoyl)amino)indeno[1,2-c]pyrazol-4-one]
226 °C | COc1ccc(-c2[nH]nc3c2C(=O)c2c(NC(=O)Cc4cc(OC)ccc4OC)cccc2-3)cc1 [Example XIV, 3-(4-methoxyphenyl)-5-((2,5-dimethoxyphenyl)acetamido)indeno[1,2-c]pyrazol-4-one]
267 °C | CN(C)c1ccc(-c2[nH]nc3c2C(=O)c2c(NC(=O)CN4CCC(O)CC4)cccc2-3)cc1 [Example LXXX, 3-(4-(N,N-dimethylamino)phenyl)-5-(4-hydroxypiperidinoacetamido)indeno[1,2-c]pyrazol-4-one]
